# Data as given in patent US12116358B2, “Substituted indoles and methods of use thereof” (EPIZYME, INC., priority 2018, dated 2024).
# Read-outs that look alike come from different tables or passages of the source.
# Legend:
# SETD2(1434-1711) = biological target: T1, SETD2(1434-1711) (Homo sapiens, UniProt Q9BYW2); assay: SETD2 (1434-1711) assay; format: biochemical; conditions: read-out: SETD2 (1434-1711)
# T1 construct: SETD2 (1434-1711) Assay; catalogue N/A
# T1 sequence (Q9BYW2 1434-1711): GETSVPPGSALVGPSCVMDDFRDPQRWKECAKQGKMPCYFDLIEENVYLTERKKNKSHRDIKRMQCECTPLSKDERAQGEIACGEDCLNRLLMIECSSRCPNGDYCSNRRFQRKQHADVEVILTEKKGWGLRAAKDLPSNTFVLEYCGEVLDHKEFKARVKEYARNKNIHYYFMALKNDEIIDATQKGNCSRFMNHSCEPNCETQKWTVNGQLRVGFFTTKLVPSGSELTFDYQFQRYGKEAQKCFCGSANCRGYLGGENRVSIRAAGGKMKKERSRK
# H3K36me3 in A549 cells = assay: In-Cell Western (ICW) assay of SETD2 inhibitors (A549 assay); format: cell-based, human
# Experimental: In-Cell Western (ICW) Assay of SETD2 Inhibitors (A549 Assay)
# Representative Compounds of the Disclosure were tested in the A549 assay according the following protocol.
# 1. Reagents and Consumables:
# Prepare plates with compounds. Seed A549 cells to the plates with compounds, 4,000 cells/well, 50 μl/well. Put the plates at room temperature on a non-vibrating surface for 20 minutes before placing in the incubator. Incubate the plate at 37° C. incubator with CO2 for 3 days. Remove plate from incubator and bring to room temperature. Blot media out of the plate and add 50 μL of ice cold 100% methanol. Incubate 30 minutes at room temperature. Remove methanol by aspiration. Wash 3× with PBST. Add 50 μL of Blocking Buffer+0.1% Tween 20. Incubate 1 hour. Remove Blocking Buffer, wash 3× with PBST. Add 20 μL of H3K36me3 (1:1000 dilution). […] Incubate overnight at 4° C. Wash plate 5× with PBS-T. Add 20 μL of DRAQ5 (1:1000) and IRDye 800CW Goat anti-Rabbit IgG (1:500). Incubate for 1 hour in the dark. Wash plate 5× with PBS-T. Wash plate 3× with water. Dry by blotting on paper towel, then centrifuge plate upside down on a thin layer of paper towels for 1 minute at 1000 rpm to remove excess reagent. Leave plate uncovered for ˜10 minutes out of direct light before reading. Read on Licor instrument.
# 4. Licor Instrument Settings:
# Preset: Plate; Resolution: 84 μm; Quality: low; Focus offset: 4.0; 700 channel intensity: 2; and 800 channel intensity: 3.
# [1] = A549 cells, read-out: SETD2 A549
# [2] = Homo sapiens, A549 cells, read-out: SETD2 A549
# [3] = Homo sapiens, A549, read-out: SETD2 A549
SMILES,IC50 (SETD2(1434-1711)) [nM],IC50 (H3K36me3 in A549 cells; [1]) [nM],IC50 (H3K36me3 in A549 cells; [2]) [nM],IC50 (H3K36me3 in A549 cells; [3]) [nM]
Cc1ccc(F)c2cc(C(=O)NC(C(=O)Nc3ccccc3)c3ccccn3)[nH]c12 (stereo not drawn) [compound 517],3700,18500,–,–
Cc1cccnc1C(NC(=O)c1cc2ccnc(C)c2[nH]1)C1CC1 (stereo not drawn) [compound 598],> 50000,–,> 25000,–
Cc1ccc(F)c2cc(C(=O)Nc3cccc(N4CC5CC(C4)O5)c3)[nH]c12 [compound 218],70,500,–,–
Cc1ccc(F)c2cc(C(=O)Nc3ccc4nc(NC5CCNCC5)ncc4c3)[nH]c12 [compound 416],40,–,3300,–
Cc1ccc(F)c2cc(C(=O)Nc3cccc(N4CCN(CC5CC5)CC4)c3)[nH]c12 [compound 199],50,400,–,–
Cc1cc(Cn2ccnc2)cnc1C(NC(=O)c1cc2cccc(C)c2[nH]1)C1CC1 (stereo not drawn) [compound 309],200,–,1300,–
Cc1ccc(F)c2cc(C(=O)Nc3cc(F)cc(C4CCN(C5CC(=O)N(C)C5)C4)c3)[nH]c12 (stereo not drawn) [compound 89],30,–,200,–
Cc1cccc2cc(C(=O)Nc3ccc4nc(CN(C)C)cn4c3)[nH]c12 [compound 546],3900,–,> 25000,–
Cc1ccc(F)c2cc(C(=O)NC3CCCN(CCC(=O)N(C)C)C3)[nH]c12 (stereo not drawn) [compound 378],> 10000,> 2000,–,–
Cc1ccc(F)c2cc(C(=O)NC3CCCC(N4CCC(N(C)C(=O)CO)C4)C3)[nH]c12 (stereo not drawn) [compound 995],8,30,–,–
CNC(=O)N1CCN(c2cccc(NC(=O)c3cc4c(F)ccc(C)c4[nH]3)c2)CC1 [compound 139],50,–,300,–
Cc1ccc(F)c2cc(C(=O)NC3CCCC(N4CCN(C(=O)C(C)C)C(C(F)(F)F)C4)C3)[nH]c12 (stereo not drawn) [compound 1171],30,60,–,–
Cc1ccc(F)c2cc(C(=O)NC3CCCC(N4CCN(C(=O)OC(C)C)CC4)C3)[nH]c12 (stereo not drawn) [compound 997],10,80,–,–
Cc1ccc(F)c2cc(C(=O)Nc3cnn(C4CCC(N(C)C)CC4)c3)[nH]c12 (stereo not drawn) [compound 565],11600,–,> 25000,–
Cc1ccc(F)c2cc(C(=O)Nc3cccc(-c4ncc[nH]4)c3)[nH]c12 [compound 428],1000,–,4100,–
CC(=O)N1CCN(C2CCC(NC(=O)c3cc4c(F)ccc(C)c4[nH]3)CC2)CC1 (stereo not drawn) [compound 383],> 10000,> 2000,–,–
Cc1ccc(F)c2cc(C(=O)N[C@@H]3CCC[C@@H](N4CCC5(CCC(=O)N5)CC4)C3)[nH]c12 [compound 939],500,–,> 2000,–
Cc1ccc(F)c2cc(C(=O)Nc3cccc([C@@H]4CCN5C(=O)CC[C@@H]5C4)c3)[nH]c12 [compound 51],20,100,–,–
Cc1ccc(F)c2cc(C(=O)NC3CCCC(N4CCN(C(=O)OC5CCOCC5)CC4)C3)[nH]c12 (stereo not drawn) [compound 1000],1500,> 2000,–,–
Cc1ccc(F)c2cc(C(=O)NC3CCCC(N4CCC5(CCC(=O)N5CC(F)(F)F)CC4)C3)[nH]c12 (stereo not drawn) [compound 966],600,> 2000,–,–
CC[C@H]1CN([C@@H]2CCC[C@@H](NC(=O)c3cc4c(F)ccc(C)c4[nH]3)C2)CCN1C(C)=O [compound 1086],800,–,> 2000,–
Cc1ccc(F)c2cc(C(=O)NC3CNCCc4ccccc43)[nH]c12 (stereo not drawn) [compound 364],2000,> 2000,–,–
Cc1ccc(F)c2cc(C(=O)Nc3cccc(-c4nccn4C)c3)[nH]c12 [compound 171],100,–,300,–
CC(=O)N1CCN(c2ccc(F)c(NC(=O)c3cc4c(F)ccc(C)c4[nH]3)c2)CC1 [compound 185],100,–,400,–
Cc1ccc(F)c2cc(C(=O)Nc3cc(F)cc(C4CCN(C(=O)CN(C)C)C4)c3)[nH]c12 (stereo not drawn) [compound 140],10,–,300,–

SMILES,IC50 (SETD2(1434-1711)) [nM],IC50 (H3K36me3 in A549 cells; [1]) [nM],IC50 (H3K36me3 in A549 cells; [2]) [nM],IC50 (H3K36me3 in A549 cells; [3]) [nM]
Cc1ccc(F)c2cc(C(=O)Nc3cccc(N4CCN5C(=O)NCC5C4)c3)[nH]c12 (stereo not drawn) [compound 181],30,400,–,–
C=Cc1ccc(C)c2[nH]c(C(=O)NC(CCC(=O)N3CCOCC3)c3ncccc3C)cc12 (stereo not drawn) [compound 431],2100,4400,–,–
CC(=O)N1CCN(c2cccc(NC(=O)c3cc4c(F)ccc(C)c4[nH]3)c2)CC1CC(C)C (stereo not drawn) [compound 193],100,–,400,–
COC1CCN(c2cccc(NC(=O)c3cc4c(F)ccc(C)c4[nH]3)c2)CC1 [compound 198],70,400,–,–
Cc1ccc(F)c2cc(C(=O)NC3CCCC(N4CCCN(C)C(=O)C4)C3)[nH]c12 (stereo not drawn) [compound 387],> 10000,> 2000,–,–
Cc1cccc2cc(C(=O)NC3CCNC(=O)c4ccccc43)[nH]c12 (stereo not drawn) [compound 620],> 200000,> 25000,–,–
Cc1ccc(F)c2cc(C(=O)Nc3cccc(N4CCn5ccnc5C4)c3)[nH]c12 [compound 233],50,500,–,–
Cc1ccc(F)c2cc(C(=O)Nc3cccc(N4CCC(NCCO)CC4)c3)[nH]c12 [compound 210],30,400,–,–
Cc1cc(C(=O)NC2CNC2)cnc1C(NC(=O)c1cc2cccc(C)c2[nH]1)C1CC1 (stereo not drawn) [compound 535],600,> 25000,–,–
Cc1ccc(F)c2cc(C(=O)NC3CCCC(c4nnc(CN(C)C)o4)C3)[nH]c12 (stereo not drawn) [compound 954],–,> 2000,–,–
Cc1cccnc1[C@H](NC(=O)c1cc2cccc(C)c2[nH]1)C1CC1 [compound 463],–,–,–,6400
Cc1ccc(F)c2cc(C(=O)NC3CCCC(N4CCN(C)C(=O)C4)C3)[nH]c12 (stereo not drawn) [compound 382],–,> 2000,–,–
Cc1cccnc1C(NC(=O)c1cc2c(F)ccc(C)c2[nH]1)C1CC1 (stereo not drawn) [compound 462],–,–,–,6300
Cc1ccc(F)c2cc(C(=O)N[C@@H]3CCC[C@@H](N4CCN(S(C)(=O)=O)CC4)C3)[nH]c12 [compound 851],–,> 2000,–,–
Cc1ccc(F)c2cc(C(=O)NC3CCCC(N4CCOCC4)C3)[nH]c12 (stereo not drawn) [compound 374],–,> 2000,–,–
CC(=O)N(C)[C@H]1CCN([C@H]2CCC[C@@H](NC(=O)c3cc4c(F)ccc(C)c4[nH]3)C2)C1 [compound 841],–,–,–,100
Cc1ccc(F)c2cc(C(=O)Nc3ncc(C4CCN(C)CC4)n3C)[nH]c12 [compound 1159],–,> 25000,–,–
Cc1ccc(F)c2cc(C(=O)NC3CCCC(N4CCN5C(=O)CCC5C4)C3)[nH]c12 (stereo not drawn) [compound 920],–,100,–,–
CC(=O)N1CCC2C1CCN2C1CCCC(NC(=O)c2cc3c(F)ccc(C)c3[nH]2)C1 (stereo not drawn) [compound 1185],–,70,–,–
CC(=O)N1CCC2CN(C3CCCC(NC(=O)c4cc5c(F)ccc(C)c5[nH]4)C3)CC21 (stereo not drawn) [compound 1181],–,> 2000,–,–
Cc1cccc2cc(C(=O)Nc3ccccc3)[nH]c12 [compound 479],–,–,–,9500
CC(=O)N1CCC2C1CCN2C1CCCC(NC(=O)c2cc3c(F)ccc(C)c3[nH]2)C1 (stereo not drawn) [compound 1186],–,> 2000,–,–
Cc1nccnc1C(NC(=O)c1cc2cccc(C)c2[nH]1)C1CC1 (stereo not drawn) [compound 518],–,–,18900,–
CC(=O)N1CCC2CN(C3CCCC(NC(=O)c4cc5c(F)ccc(C)c5[nH]4)C3)CC21 (stereo not drawn) [compound 1183],–,> 2000,–,–
Cc1ccc(F)c2cc(C(=O)NC3CCCC(N4CCN5C(=O)CCC5C4)C3)[nH]c12 (stereo not drawn) [compound 922],–,10,–,–
